From patent US8436012B2, “Imidazopyridin-2-one derivatives” (Daiichi Sankyo Company, Limited, priority 2008, dated 2013) come the findings set out here.

The subject of one assay is WM-266-4 cells. Nature of the assay: Cell Proliferation Inhibitory Test. The conditions noted are these: Homo sapiens, 72 h, cultured three days with test compound, MTT, read-out: 50% cell proliferation inhibitory activity (GI50 value). The format is cell-based. The procedure: WM-266-4 cells (ATCC, USA) were seeded in a 96-well plate and cultured overnight. Then, serial dilutions of the sample containing the test compound were prepared, added to each well and cultured another three days. Thereafter, the cell amount in each well was measured by MTT (MOSMANN, T., Rapid colorimetric assay for cellular growth and survival: application to proliferation and cytotoxicity assays. J. Immunol. Methods, 65, 55-63 (1983)). The 50% cell proliferation inhibitory activity (GI50 value) was calculated from the following formula (3). 100×[(T−T0)/(C−T0)]=50 (3)
Here, T represents values from the test compound added wells, C represents the value from the well to which the test compound was not added for three days, and To represents an initial measured value at the time of addition of the test compound.

A further assay deals with T1, human mTOR (Homo sapiens, UniProt P42345).
T1 construct: the portion corresponding to 1362-2549aa at the C terminus of human mTOR; made in house
T1 sequence (P42345 1362-2549): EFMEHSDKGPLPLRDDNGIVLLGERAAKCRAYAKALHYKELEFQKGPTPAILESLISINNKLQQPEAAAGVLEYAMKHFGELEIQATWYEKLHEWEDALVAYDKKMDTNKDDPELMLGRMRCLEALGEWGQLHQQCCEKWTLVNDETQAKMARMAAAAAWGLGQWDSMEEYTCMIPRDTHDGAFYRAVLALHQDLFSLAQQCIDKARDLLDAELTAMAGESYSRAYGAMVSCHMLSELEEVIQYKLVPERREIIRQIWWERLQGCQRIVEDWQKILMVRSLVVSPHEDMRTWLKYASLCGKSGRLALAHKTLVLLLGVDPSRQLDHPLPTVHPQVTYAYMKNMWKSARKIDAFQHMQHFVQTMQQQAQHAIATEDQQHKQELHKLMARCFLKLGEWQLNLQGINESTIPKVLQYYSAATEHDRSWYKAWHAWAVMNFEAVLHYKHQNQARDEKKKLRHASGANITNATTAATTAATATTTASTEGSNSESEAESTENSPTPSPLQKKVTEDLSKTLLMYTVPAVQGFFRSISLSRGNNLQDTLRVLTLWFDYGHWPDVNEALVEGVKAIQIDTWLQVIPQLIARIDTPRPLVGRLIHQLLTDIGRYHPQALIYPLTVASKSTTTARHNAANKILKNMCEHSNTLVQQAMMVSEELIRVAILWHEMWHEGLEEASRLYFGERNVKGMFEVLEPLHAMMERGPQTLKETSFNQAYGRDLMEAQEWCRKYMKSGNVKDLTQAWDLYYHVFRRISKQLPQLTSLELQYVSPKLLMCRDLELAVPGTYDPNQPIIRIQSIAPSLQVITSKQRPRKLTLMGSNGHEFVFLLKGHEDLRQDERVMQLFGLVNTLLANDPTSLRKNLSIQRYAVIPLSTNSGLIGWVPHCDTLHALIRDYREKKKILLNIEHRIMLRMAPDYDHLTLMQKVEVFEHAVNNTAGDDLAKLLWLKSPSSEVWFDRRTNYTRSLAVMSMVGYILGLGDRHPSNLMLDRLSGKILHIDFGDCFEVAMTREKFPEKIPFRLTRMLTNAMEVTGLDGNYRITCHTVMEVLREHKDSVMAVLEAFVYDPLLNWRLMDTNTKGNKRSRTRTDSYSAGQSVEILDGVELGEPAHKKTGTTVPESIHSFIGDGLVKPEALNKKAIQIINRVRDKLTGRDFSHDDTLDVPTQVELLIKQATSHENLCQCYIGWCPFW
Nature of the assay: mTOR Kinase Activity Inhibition Test. The format is biochemical. The conditions noted are these: His-tagged mTOR (1362C), biotinylated peptide substrate, ATP, 3 hours at room temperature, fluorescence resonance energy transfer 665 nm/620 nm; read-out: IC50 value of mTOR enzyme inhibitory activity. The procedure: The kinase activity of mTOR was measured in the presence or absence of a test compound. A substrate peptide is phosphorylated by mTOR kinase activity. A complex of streptavidin-XL665 and anti-phosphorylated S6K (Thr389) antibody/anti-mouse IgG-cryptate binds to this phosphorylated peptide. At this moment, fluorescence resonance energy transfer takes place from antibody/anti-mouse IgG-cryptate exposed to light excitation to XL665, which results in emission of fluorescence at 665 nm. The mTOR kinase activity is detected using this principle.
(1) Sample Preparation and Enzymatic Reaction
An HEK293 cell line that constitutively expresses a His tag fused human mTOR has been established. His tag was introduced into the N terminus of the portion corresponding to 1362-2549aa at the C terminus of human mTOR. Cell lysate was prepared from this HEK293 cell line constitutively expressing His-tagged mTOR (1362C), and His-tagged mTOR (1362C) was purified using the His tag affinity according to a conventional method.
Next, an mTOR enzyme solution was prepared, which contains the aforementioned His-tagged mTOR (1362C) enzyme, 8 μg/mL of biotinylated peptide (Biotin-Ahx-[…]-amide (Sigma)), as well as 50 mM HEPES (pH 7.5), 20 mM MnCl2, 1 mg/ml BSA, an appropriate amount of protease inhibitor cocktail (Complete EDTA free, Roche), 100 ng/ml Calyculin A, 4 μg/ml Cantharidin and 10 mM DTT as other components.
The test compound was dissolved in DMSO, and serial dilutions were prepared with 20 μM ATP solution (50 mM HEPES (pH 7.5), 20 μM ATP) to achieve concentrations necessary for the assay. 5 μL of this compound solution was applied to each well of a 384 well small volume white Greiner plate.
5 μL of mTOR enzyme solution was added to the aforementioned well containing the test compound. After mixing, the mixture was incubated at room temperature for 3 hours to carry out the enzymatic reaction.
The same operation was performed with a solution of DMSO in 20 μM ATP solution as a positive control and with a solution of DMSO in 50 mM HEPES (pH 7.5) as a negative control.
(2) Detection of Enzymatic Reaction
After the enzymatic reaction, 5 μl each of an europium solution (a solution of anti-mouse IgG-cryptate (SCETI Medical Labo K.K.) and anti-phosphorylated S6K (Thr389) antibody (Cell Signaling Technology Inc.) in 50 mM HEPES (pH 7.5), 100 mM EDTA and 1.5 mg/ml BSA) and an XL665 solution (a solution of streptavidin-XL665 (SCETI Medical Labo K.K.) in 50 mM HEPES (pH 7.5), 100 mM EDTA, 0.8 M KF and 1.5 mg/ml BSA) were added in this order and then mixed. The mixture was incubated at 4° C. overnight. On the following day, the mixture was returned to room temperature and irradiated with excitation light at 337 nm. Fluorescence at 620 nm and fluorescence at 665 nm were measured with RUBYstar (BMG).
The mTOR inhibitory activity (%) was calculated using the ratio calculated from the measured values as an index of enzyme activity. Here, the ratio was calculated from the following formula (I). Ratio=10000×665 nm fluorescence value/620 nm fluorescence value (1)
The mTOR enzyme inhibitory activity (%) was calculated from the following formula (2). mTOR enzyme inhibitory activity (%)=100×[(P−S)/(P−N)] (2)
P: Ratio in well of positive control
N: Ratio in well of negative control
S: Ratio in well containing test compound
Further, an optimal curve was calculated based upon each concentration of the test compound prepared in serial dilutions and the mTOR enzyme inhibitory activity (%) at that concentration. The concentration at which 50% inhibition occurred was calculated as the IC50 value of mTOR enzyme inhibitory activity.

As for `O=c1[nH]c2ncc(-c3ccc4ncccc4c3)cc2n1CC1CCOCC1` [Example 10, 6-Quinolin-6-yl-1-(tetrahydro-2H-pyran-4-ylmethyl)-1,3-dihydro-2H-imidazo[4,5-b]pyridin-2-one], the GI50 with WM-266-4 cells was 3000 to 25000 nM. On human mTOR, the IC50 was less than 50 nM.

On to `O=c1[nH]c2ncc(-c3ccc4[nH]ncc4c3)cc2n1CC1CCOCC1` [Example 14, 6-(1H-Indazol-5-yl)-1-(tetrahydro-2H-pyran-4-ylmethyl)-1,3-dihydro-2H-imidazo[4,5-b]pyridin-2-one], for which the GI50 with WM-266-4 cells lay in the range of 3000 to 25000 nM. Besides, the IC50 at human mTOR is 100 to 5000 nM.

As to `O=c1[nH]c2ncc(-c3cnc4[nH]ccc4c3)cc2n1CC1CCOCC1` [Example 15, 6-(1H-Pyrrolo[2,3-b]pyridin-5-yl)-1-(tetrahydro-2H-pyran-4-ylmethyl)-1,3-dihydro-2H-imidazo[4,5-b]pyridin-2-one], the GI50 with WM-266-4 cells was less than 3000 nM. In addition, at human mTOR, the IC50 is less than 50 nM.

For `Cc1nc2[nH]ccc2cc1-c1cnc2[nH]c(=O)n(CC3CCOCC3)c2c1` [Example 16, 6-(6-Methyl-1H-pyrrolo[2,3-b]pyridin-5-yl)-1-(tetrahydro-2H-pyran-4-ylmethyl)-1,3-dihydro-2H-imidazo[4,5-b]pyridin-2-one], the GI50 with WM-266-4 cells is less than 3000 nM. Moreover, the IC50 on human mTOR was less than 50 nM.

As for `Cc1nc2[nH]c(=O)n(CC3CCOCC3)c2cc1-c1cnc2[nH]ccc2c1` [Example 17, 5-Methyl-6-(1H-pyrrolo[2,3-b]pyridin-5-yl)-1-(tetrahydro-2H-pyran-4-ylmethyl)-1,3-dihydro-2H-imidazo[4,5-b]pyridin-2-one], in the assay with WM-266-4 cells, the GI50 was less than 3000 nM. For the same compound, the IC50 on human mTOR is less than 50 nM.

On to `Cc1c(-c2cnc3[nH]ccc3c2)cnc2[nH]c(=O)n(CC3CCOCC3)c12` [Example 18, 7-Methyl-6-(1H-pyrrolo[2,3-b]pyridin-5-yl)-1-(tetrahydro-2H-pyran-4-ylmethyl)-1,3-dihydro-2H-imidazo[4,5-b]pyridin-2-one], for which the GI50 in the assay on WM-266-4 cells was less than 3000 nM. The IC50 at human mTOR was less than 50 nM.

Turning to `O=c1[nH]c2ncc(-c3cnc4[nH]ccc4c3)cc2n1C1CCOCC1` [Example 19, 6-(1H-Pyrrolo[2,3-b]pyridin-5-yl)-1-(tetrahydro-2H-pyran-4-yl)-1,3-dihydro-2H-imidazo[4,5-b]pyridin-2-one], the GI50 in the assay on WM-266-4 cells was less than 3000 nM. The IC50 on human mTOR was less than 50 nM.

On to `O=c1[nH]c2ncc(-c3cnc4[nH]ccc4c3)cc2n1CCC1CCOCC1` [Example 20, 6-(1H-Pyrrolo[2,3-b]pyridin-5-yl)-1-[2-(tetrahydro-2H-pyran-4-yl)ethyl]-1,3-dihydro-2H-imidazo[4,5-b]pyridin-2-one], for which, in the assay with WM-266-4 cells, the GI50 is less than 3000 nM. In addition, the IC50 on human mTOR was less than 50 nM.

Take `O=c1[nH]c2ncc(-c3cnc4[nH]ccc4c3)cc2n1CC1CC1` [Example 21, 1-(Cyclopropylmethyl)-6-(1H-pyrrolo[2,3-b]pyridin-5-yl)-1,3-dihydro-2H-imidazo[4,5-b]pyridin-2-one]: in the assay on WM-266-4 cells, the GI50 was less than 3000 nM. The IC50 at human mTOR was less than 50 nM.

Turning to `O=c1[nH]c2ncc(-c3cc4ccccc4[nH]3)cc2n1CC1CCOCC1` [Example 23, 6-(1H-Indol-2-yl)-1-(tetrahydro-2H-pyran-4-ylmethyl)-1,3-dihydro-2H-imidazo[4,5-b]pyridin-2-one], the GI50 in the assay on WM-266-4 cells is less than 3000 nM. Further, on human mTOR, the IC50 is less than 50 nM.

`CC(C1CCOCC1)n1c(=O)[nH]c2ncc(-c3cnc4[nH]ccc4c3)cc21` (stereo not shown) [Example 24, 6-(1H-Pyrrolo[2,3-b]pyridin-5-yl)-1-[1-(tetrahydro-2H-pyran-4-yl)ethyl]-1,3-dihydro-2H-imidazo[4,5-b]pyridin-2-one]: the GI50 in the assay with WM-266-4 cells was less than 3000 nM. Further, on human mTOR, the IC50 is less than 50 nM.

Take `CC1(Cn2c(=O)[nH]c3ncc(-c4cnc5[nH]ccc5c4)cc32)CCOCC1` [Example 25, 1-[(4-Methyltetrahydro-2H-pyran-4-yl)methyl]-6-(1H-pyrrolo[2,3-b]pyridin-5-yl)-1,3-dihydro-2H-imidazo[4,5-b]pyridin-2-one]: the GI50 in the assay with WM-266-4 cells is less than 3000 nM. Besides, the IC50 at human mTOR was less than 50 nM.

On to `CS(=O)(=O)N1CCC(Cn2c(=O)[nH]c3ncc(-c4cnc5[nH]ccc5c4)cc32)CC1` [Example 26, 1-{[1-(Methanesulfonyl)piperidin-4-yl]methyl}-6-(1H-pyrrolo[2,3-b]pyridin-5-yl)-1,3-dihydro-2H-imidazo[4,5-b]pyridin-2-one], for which the GI50 with WM-266-4 cells was less than 3000 nM. Moreover, the IC50 on human mTOR is less than 50 nM.

With `O=c1[nH]c2ncc(-c3ccc4[nH]ccc4c3F)cc2n1CC1CCOCC1` [Example 27, 6-(4-Fluoro-1H-indol-5-yl)-1-(tetrahydro-2H-pyran-4-ylmethyl)-1,3-dihydro-2H-imidazo[4,5-b]pyridin-2-one], the GI50 in the assay on WM-266-4 cells is less than 3000 nM. In addition, on human mTOR, the IC50 is less than 50 nM.

`O=c1[nH]c2ncc(-c3cc4cc[nH]c4cc3F)cc2n1CC1CCOCC1` [Example 28, 6-(6-Fluoro-1H-indol-5-yl)-1-(tetrahydro-2H-pyran-4-ylmethyl)-1,3-dihydro-2H-imidazo[4,5-b]pyridin-2-one]: in the assay on WM-266-4 cells, the GI50 was less than 3000 nM. Besides, the IC50 at human mTOR was less than 50 nM.

On to `O=c1[nH]c2ncc(-c3cc(F)c4[nH]ccc4c3)cc2n1CC1CCOCC1` [Example 29, 6-(7-Fluoro-1H-indol-5-yl)-1-(tetrahydro-2H-pyran-4-ylmethyl)-1,3-dihydro-2H-imidazo[4,5-b]pyridin-2-one], for which the GI50 with WM-266-4 cells was less than 3000 nM. Moreover, at human mTOR, the IC50 is less than 50 nM.

Take `O=c1[nH]c2ncc(-c3cnc4[nH]ccc4c3)cc2n1CC1=CCCOC1` [Example 31, 1-(5,6-Dihydro-2H-pyran-3-ylmethyl)-6-(1H-pyrrolo[2,3-b]pyridin-5-yl)-1,3-dihydro-2H-imidazo[4,5-b]pyridin-2-one]: the GI50 with WM-266-4 cells was less than 3000 nM. Further, the IC50 at human mTOR was less than 50 nM.

Take `O=c1[nH]c2ncc(-c3cnc4[nH]ccc4c3)cc2n1CC1CCCOC1` (stereo not shown) [Example 32, 6-(1H-Pyrrolo[2,3-b]pyridin-5-yl)-1-(tetrahydro-2H-pyran-3-ylmethyl)-1,3-dihydro-2H-imidazo[4,5-b]pyridin-2-one]: in the assay on WM-266-4 cells, the GI50 was less than 3000 nM. Moreover, on human mTOR, the IC50 was less than 50 nM.

`O=c1[nH]c2ncc(-c3cc(F)c4[nH]ccc4c3)cc2n1CCN1CCOCC1` [Example 33, 6-(7-Fluoro-1H-indol-5-yl)-1-(2-morpholin-4-ylethyl)-1,3-dihydro-2H-imidazo[4,5-b]pyridin-2-one]: the GI50 with WM-266-4 cells is less than 3000 nM. Moreover, on human mTOR, the IC50 was less than 50 nM.

As to `O=c1[nH]c2ncc(-c3cnc4[nH]ccc4c3Cl)cc2n1CC1CCOCC1` [Example 34, 6-(4-Chloro-1H-pyrrolo[2,3-b]pyridin-5-yl)-1-(tetrahydro-2H-pyran-4-ylmethyl)-1,3-dihydro-2H-imidazo[4,5-b]pyridin-2-one], in the assay on WM-266-4 cells, the GI50 was less than 3000 nM. The IC50 on human mTOR is less than 50 nM.

By IC50 is commonly meant the concentration that gives 50% inhibition.
